In patent publication US11780845B2 (Relay Therapeutics, Inc., priority 2019, dated 2023):

What was measured:
FGFR2 = FGFR2 (Homo sapiens (Human), UniProt P21802); assay: Biochemical FGFR2 Caliper assay
SNU-16 = assay: Cell SNU-16 assay; type: cell-based; settings: Homo sapiens, SNU-16, SNU-16 cells

FGFR2, sequence (P21802 22-821): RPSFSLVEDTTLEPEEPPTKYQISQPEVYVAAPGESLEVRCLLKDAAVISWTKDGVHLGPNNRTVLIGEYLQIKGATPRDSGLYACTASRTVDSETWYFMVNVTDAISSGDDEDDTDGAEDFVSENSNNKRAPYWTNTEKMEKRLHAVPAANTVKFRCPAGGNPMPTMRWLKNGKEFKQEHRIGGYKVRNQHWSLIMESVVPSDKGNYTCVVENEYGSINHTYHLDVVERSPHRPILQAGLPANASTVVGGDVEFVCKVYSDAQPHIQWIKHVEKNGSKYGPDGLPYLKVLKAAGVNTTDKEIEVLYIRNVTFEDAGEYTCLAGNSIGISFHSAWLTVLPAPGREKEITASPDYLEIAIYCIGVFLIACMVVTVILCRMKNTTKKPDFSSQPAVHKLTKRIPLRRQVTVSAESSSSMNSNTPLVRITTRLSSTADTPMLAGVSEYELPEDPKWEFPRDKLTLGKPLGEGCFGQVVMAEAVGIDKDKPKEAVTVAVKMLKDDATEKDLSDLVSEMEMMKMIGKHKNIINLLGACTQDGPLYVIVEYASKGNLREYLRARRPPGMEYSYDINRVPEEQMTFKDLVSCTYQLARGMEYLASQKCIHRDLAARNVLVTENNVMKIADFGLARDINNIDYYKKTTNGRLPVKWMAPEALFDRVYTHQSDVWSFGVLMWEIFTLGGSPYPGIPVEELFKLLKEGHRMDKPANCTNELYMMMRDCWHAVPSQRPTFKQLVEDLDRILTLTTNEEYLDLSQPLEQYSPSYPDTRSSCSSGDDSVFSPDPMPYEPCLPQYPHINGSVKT

| Compound | IC50 (FGFR2) [nM] | IC50 (SNU-16) [nM] |
| --- | --- | --- |
| C=C(C)C(=O)Nc1ccc(-c2c(-c3ccc(-c4cc(=O)[nH][nH]4)cc3)c3c(N)ncnc3n2C)cc1 [Example 1300] | 1000 to 100000 | 1000 to 100000 |
| C=C(C)C(=O)Nc1ccc(-c2c(-c3ccc4cn[nH]c4c3)c3c(N)ncnc3n2C)cc1 [Example 1301] | 1000 to 100000 | 1000 to 100000 |
| C=C(C)C(=O)Nc1ccc(-c2c(-c3ccc4nn[nH]c4c3)c3c(N)ncnc3n2C)cc1 [Example 1302] | 1000 to 100000 | 1000 to 100000 |
| C=C(C)C(=O)Nc1ccc(-c2c(-c3ccc(NC(=O)OCC)nc3)c3c(N)ncnc3n2C)cc1 [Example 1303] | 1000 to 100000 | 1000 to 100000 |
| C#Cc1ccc(-c2c(C3=CC[C@H](C(=O)N4CCCC45COC5)CC3)c3c(N)ncnc3n2C)c(C)n1 [Example 1304] | 250 to 1000 | 250 to 1000 |
| C#Cc1ncc(-c2c(-c3ccc(C(=O)N(C)CC(C)C)cc3)c3c(N)ncnc3n2C)c(C)c1F [Example 1305] | < 100 | ≤ 100 |
| C#Cc1ncc(-c2c(-c3ccc(C(=O)NCC(C)C)cc3)c3c(N)ncnc3n2C)c(C)c1F [Example 1306] | < 100 | ≤ 100 |
| CNC(=O)/C(C#N)=C/c1ccc(-c2c(-c3ccc(Oc4nccc(C)n4)c(F)c3)c3c(N)ncnc3n2C)c(C)c1 [Example 1309] | < 100 | 250 to 1000 |
| C#Cc1ncc(-c2c(-c3ccc(Oc4nccc(C)n4)cc3F)c3c(N)ncnc3n2C)c(C)c1F [Example 1310] | < 100 | ≤ 100 |
| C=C1CCc2cc(-c3c(-c4ccc(Oc5nccc(C)n5)cc4)c4c(N)ncnc4n3C)ccc2C1=O [Example 1311] | < 100 | 250 to 1000 |
| CC#Cc1cnc(-c2c(-c3ccc(Oc4nccc(C)n4)c(F)c3)c3c(N)ncnc3n2C)c(C)n1 [Example 1312] | 250 to 1000 | 100 to 250 |
| C#Cc1ncc(-c2c(-c3ccc(Oc4nccc(C)n4)c(F)c3)c3c(N)ncnc3n2C)c(C)c1F [Example 1313] | < 100 | ≤ 100 |
| C#Cc1cnc(-c2c(-c3ccc(Oc4nccc(C)n4)c(F)c3)c3c(N)ncnc3n2C)c(CN(C)C)c1 [Example 1314] | 100 to 250 | ≤ 100 |
| C=CC(=O)Nc1ccc(-c2c(-c3ccc(-n4cc(C)cn4)nc3)c3c(C)ncnc3n2C)cc1 [Example 1315] | 100 to 250 | 250 to 1000 |
| C=C(C)C(=O)Nc1ccc(-c2c(-c3ccc(-n4cc(CC)cn4)nc3)c3c(N)ncnc3n2C)cc1 [Example 1316] | 250 to 1000 | 250 to 1000 |
| C#Cc1cc(C)c(-c2c(C3=CC[C@H](C(=O)N4CCC[C@H]4C)CC3)c3c(N)ncnc3n2C)c(F)n1 [Example 1319] | < 100 | ≤ 100 |
| C#Cc1nc2cc(-c3c(C4=CC[C@@H](C(=O)N5CCC[C@H]5COC)CC4)c4c(N)ncnc4n3C)ccc2[nH]1 [Example 1320] | < 100 | 250 to 1000 |
| C#Cc1cc(C)c(-c2cn3ncnc(N)c3c2-c2ccc(Oc3nccc(C)n3)c(F)c2)cn1 [Example 1321] | < 100 | ≤ 100 |
| C#Cc1cc(C)c(-c2c(-c3ccc(Oc4nccc(C)n4)c(F)c3)c3c(N)ncnc3n2C)c(F)n1 [Example 1322] | < 100 | ≤ 100 |
| C=C(C)C(=O)Nc1ccc(-c2c(-c3ccc4c(C(=O)NC5CC5)n[nH]c4c3)c3c(N)ncnc3n2C)cc1 [Example 1323] | 1000 to 100000 | 1000 to 100000 |

| Compound | IC50 (FGFR2) [nM] | IC50 (SNU-16) [nM] |
| --- | --- | --- |
| C=C(C)C(=O)Nc1ccc(-c2c(-c3ccc4c(C(=O)NCC5CC5)n[nH]c4c3)c3c(N)ncnc3n2C)cc1 [Example 1324] | 1000 to 100000 | 1000 to 100000 |
| C#Cc1cc(C)c(-c2c(C3=CC[C@H](C(=O)N4CCCC45CC5)CC3)c3c(N)ncnc3n2C)cn1 [Example 1325] | 250 to 1000 | 250 to 1000 |
| C#Cc1cc(C)c(-c2c(-c3ccc(Oc4nccc(C)n4)cn3)c3c(N)ncnc3n2C)cn1 [Example 1327] | < 100 | ≤ 100 |
| C#Cc1ncc(-c2c(-c3ccc(Oc4nccc(C)n4)cn3)c3c(N)ncnc3n2C)c(C)c1F [Example 1328] | < 100 | ≤ 100 |
| C#Cc1ncc(-c2c(-c3ccc(Oc4nccc(C)n4)c(F)c3)c3c(N)ncnc3n2C(C)C)c(C)c1F [Example 1334] | < 100 | ≤ 100 |
| C#Cc1ncc(-c2c(-c3ccc(Oc4nccc(C)n4)c(F)c3)c3c(N)ncnc3n2C)c(OC)c1F [Example 1336] | < 100 | ≤ 100 |
| C=C(C)C(=O)Nc1ccc(-c2c(C3=CC[C@]4(CC3)Cc3ccc(OC)nc3C4=O)c3c(N)ncnc3n2C)cc1 [Example 1337] | 100 to 250 | ≤ 100 |
| C=C(C)C(=O)Nc1ccc(-c2c(C3=CC[C@@]4(CC3)Cc3ccc(OC)nc3C4=O)c3c(N)ncnc3n2C)cc1 [Example 1338] | 1000 to 100000 | 1000 to 100000 |
| C#Cc1cc(C)c(-c2c(C3=CC[C@@H](C(=O)N4CCCC45CC5)CC3)c3c(N)ncnc3n2C)cn1 [Example 1341] | < 100 | 250 to 1000 |
| C=C(C)C(=O)Nc1ccc(-c2c(-c3ccc4ncnn4c3)c3c(N)ncnc3n2C)cc1 [Example 1343] | 1000 to 100000 | 1000 to 100000 |
| C=C(C)C(=O)Nc1ccc(-c2c(-c3ccc4nccn4c3)c3c(N)ncnc3n2C)cc1 [Example 1345] | 1000 to 100000 | 1000 to 100000 |
| C#Cc1nc2cc(-c3c(C4=CC[C@H](C(=O)N5CCC[C@H]5COC)CC4)c4c(N)ncnc4n3C)ccc2[nH]1 [Example 1346] | < 100 | 250 to 1000 |
| C#Cc1cc(C)c(-c2c(C3=CC[C@@H](C(=O)N4CCC[C@H]4C)CC3)c3c(N)ncnc3n2C)c(F)n1 [Example 1347] | < 100 | ≤ 100 |
| C=C(C)C(=O)Nc1ccc(-c2c(-c3ccn4ncnc4c3)c3c(N)ncnc3n2C)cc1 [Example 1350] | 1000 to 100000 | 1000 to 100000 |
| C=C(C)C(=O)Nc1ccc(-c2c(-c3cnc4nncn4c3)c3c(N)ncnc3n2C)cc1 [Example 1351] | 1000 to 100000 | 1000 to 100000 |
| C=Cc1ccc(-c2c(-c3ccc4nn[nH]c4c3)c3c(N)ncnc3n2C)cn1 [Example 1352] | < 100 | ≤ 100 |
| C#Cc1ncc(-c2c(-c3ccc(Oc4nccc(C)n4)c(F)c3)c3c(N)ncnc3n2C)c(C)c1OC [Example 1353] | < 100 | ≤ 100 |
| C#Cc1cc(OC)c(-c2c(C3=CC[C@@H](C(=O)N4CCC[C@H]4C)CC3)c3c(N)ncnc3n2C)cn1 [Example 1354] | < 100 | ≤ 100 |
| C#Cc1cc(OC)c(-c2c(C3=CC[C@H](C(=O)N4CCC[C@H]4C)CC3)c3c(N)ncnc3n2C)cn1 [Example 1355] | < 100 | ≤ 100 |
| C#Cc1cc(C)c(-c2c(-c3ccc(Oc4nccc(C)n4)c(F)c3)c3c(Cl)ncnc3n2C)cn1 [Example 1356] | < 100 | ≤ 100 |

| Compound | IC50 (FGFR2) [nM] | IC50 (SNU-16) [nM] |
| --- | --- | --- |
| C#Cc1cnc(-c2c(-c3ccc(Oc4nccc(C)n4)c(F)c3)c3c(N)ncnc3n2C)c(C)n1 [Example 1358] | < 100 | ≤ 100 |
| C#Cc1nc2cc(-c3c(-c4ccc(Oc5nccc(C)n5)c(F)c4)c4c(N)ncnc4n3C)ccc2n1C [Example 1359] | < 100 | ≤ 100 |
| C#Cc1cnc2cc(-c3c(-c4ccc(Oc5nccc(C)n5)c(F)c4)c4c(N)ncnc4n3C)ccc2n1 [Example 1363] | < 100 | ≤ 100 |
| C#Cc1nc2cc(-c3c(-c4ccc(Oc5nccc(C)n5)c(F)c4)c4c(C)ncnc4n3C)ccc2[nH]1 [Example 1364] | < 100 | ≤ 100 |
| C#Cc1ncc(-c2c(-c3ccc(Oc4nccc(C)n4)c(F)c3)c3c(N)ncnc3n2C)c(C)c1C [Example 1365] | < 100 | ≤ 100 |
| C#Cc1cc(C)c(-c2c(-c3ccc(Oc4nc(C)cc(C)n4)c(F)c3)c3c(N)ncnc3n2C)cn1 [Example 1368] | < 100 | ≤ 100 |
| C#Cc1nc2cc(-c3c(C4=CC[C@@H](C(=O)N5CCCC5)CC4)c4c(N)ncnc4n3C)ccc2n1C [Example 1369] | < 100 | ≤ 100 |
| C=CC(=O)NC1CC=C(c2c(-c3ccc(Oc4nccc(C)n4)c(F)c3)c3c(N)ncnc3n2C)CC1 (stereo not drawn) [Example 1370] | 100 to 250 | 100 to 250 |
| C=C(C)C(=O)Nc1ccc(-c2c(-c3ccc(-c4ccccc4O)nc3)c3c(N)ncnc3n2C)cc1 [Example 1371] | 1000 to 100000 | 250 to 1000 |
| C=C(C)C(=O)Nc1ccc(-c2c(-c3ccc(-c4cccc(O)c4)nc3)c3c(N)ncnc3n2C)cc1 [Example 1372] | 1000 to 100000 | 1000 to 100000 |
| C=C(C)C(=O)Nc1ccc(-c2c(-c3ccc(-c4noc(C5CC5)n4)c(O)c3)c3c(N)ncnc3n2C)cc1 [Example 1373] | < 100 | 100 to 250 |
| COCC#Cc1cc(C)c(-c2c(-c3ccc(Oc4nccc(C)n4)c(F)c3)c3c(C)ncnc3n2C)cn1 [Example 1374] | 250 to 1000 | 100 to 250 |
| C#Cc1cc(F)c(-c2c(-c3ccc(Oc4nccc(C)n4)c(F)c3)c3c(C)ncnc3n2C)cn1 [Example 1375] | < 100 | ≤ 100 |
| C=CC(=O)N[C@@H]1CC=C(c2c(-c3ccc(Oc4nccc(C)n4)c(F)c3)c3c(N)ncnc3n2C)CC1 [Example 1376] | 250 to 1000 | 100 to 250 |
| C=CC(=O)N[C@H]1CC=C(c2c(-c3ccc(Oc4nccc(C)n4)c(F)c3)c3c(N)ncnc3n2C)CC1 [Example 1377] | 250 to 1000 | 250 to 1000 |
| COC/C=C/c1cc(C)c(-c2c(-c3ccc(Oc4nccc(C)n4)c(F)c3)c3c(N)ncnc3n2C)cn1 [Example 1378] | 1000 to 100000 | 1000 to 100000 |
| C#Cc1ncc2ccc(-c3c(-c4ccc(Oc5nccc(C)n5)c(F)c4)c4c(N)ncnc4n3C)cc2n1 [Example 1379] | 100 to 250 | ≤ 100 |
| C#Cc1cc(C)c(-c2cn3ncnc(N)c3c2C2=CC[C@@H](C(=O)N3CCC[C@H]3C)CC2)cn1 [Example 1380] | 250 to 1000 | 250 to 1000 |
| C#Cc1ncc(-c2c(-c3ccc(Oc4nccc(C)n4)c(F)c3)c3c(C)ncnc3n2C)cc1OC [Example 1381] | 100 to 250 | ≤ 100 |
| COCC#Cc1cc(C)c(-c2c(C3=CC[C@H](C(=O)N4CCC[C@H]4C)CC3)c3c(N)ncnc3n2C)cn1 [Example 1382] | < 100 | ≤ 100 |
